This is an account of results in patent US20230098944A1, “METHOD OF DECREASING AMYLOID BETA MONOMER LEVELS IN PATIENTS WITH COGNITIVE DECLINE” (Cognition Therapeutics, Inc., priority 2020, published 2023).

Like-named read-outs stand apart in the source and are kept apart here.

The subject of one series is amyloid β monomer. The note with it: human subjects treated for 28 days; see 62/976,325; cited from earlier work.
Another series deals with Aβ 40 and 42 monomers. The series can be described thus: Aβ 40 and 42 monomers in patient CSF after single dose (NCT03522129). The class given is in vivo, human. The note with it: single dose 560 mg, similar in all three patients including placebo. As to the method: Methods: A Phase 2 clinical trial (NCT03522129) was conducted enrolling patients with mild-to-moderate Alzheimer's disease (MMSE 18-26) into the Randomized, double-blind, placebo-controlled, single dose administration of CT1812 followed by hourly sampling of lumbar CSF via indwelling catheter for 24 hours. The primary objective of the study was to evaluate target engagement of CT1812 treatment by measuring the displacement of Aβ oligomers into cerebrospinal fluid (CSF). The was quantified by a measuring change from the baseline CSF Aβ oligomer concentration after dosing with CT1812 versus placebo. Microimmunoelectrodes (Yuede et al 2016) coated with oligomer-specific antibody, A11 were placed in CSF samples of Alzheimer's disease patient samples to detect soluble Aβ after a single dose of CT1812 (560 mg) or placebo. […] Percent change from baseline in Aβ 40 and 42 monomers were similar in all three patients (<50% increase). […] CSF Aβ oligomer levels were fit to a linear regression and the significance of the slope difference from zero was determined for each patient (FIG. 4 (measured by microimmunoelectrodes); FIG. 5 (measured by Western Blot)).

Another series deals with Patients. The series is described as follows: ADAS-COG score after 185 days of treatment versus placebo. The class given is in vivo, human. The note with it: day 185, treated at least 6 months (185 days), FIG. 7. The text has this:
Patients treated for at least 6 months (185 days) with CT1812 were compared with patients who received placebo.

Series [1] in a line: Plasma and CSF pharmacokinetics from NCT03522129. The note with it: single dose of CT1812 (560 mg); for AUC(0-t) / Cmax / Kp: 560 mg; for Kp: CSF/plasma. It is filed as in vivo, human.
For series [2], the system named is Aβ oligomers. The series is described as follows: Microimmunoelectrode (MIE) measurement of Aβ oligomers in patient CSF after single dose (NCT03522129). It is filed as in vivo, human. As for the experimental part: Methods: A Phase 2 clinical trial (NCT03522129) was conducted enrolling patients with mild-to-moderate Alzheimer's disease (MMSE 18-26) into the Randomized, double-blind, placebo-controlled, single dose administration of CT1812 followed by hourly sampling of lumbar CSF via indwelling catheter for 24 hours. The primary objective of the study was to evaluate target engagement of CT1812 treatment by measuring the displacement of Aβ oligomers into cerebrospinal fluid (CSF). The was quantified by a measuring change from the baseline CSF Aβ oligomer concentration after dosing with CT1812 versus placebo. Microimmunoelectrodes (Yuede et al 2016) coated with oligomer-specific antibody, A11 were placed in CSF samples of Alzheimer's disease patient samples to detect soluble Aβ after a single dose of CT1812 (560 mg) or placebo. Results: Microimmunoelectrode (MIE) measurements of Aβ oligomers in CSF show a drug-dependent rise in Aβ oligomers over time.

Series [3] deals with amyloid β oligomers and monomers. The note with it: animal models and preclinical data; cited from earlier work.
Series [4] deals with Aβ oligomers. The series can be described thus: Native Western Blot (82E1 antibody) measurement of Aβ oligomers in patient CSF (NCT03522129). It is filed as in vivo, human. (In western blotting, separated proteins are transferred to a membrane and probed.)

With `CC(C)(C)Oc1cc(CCC(C)(C)N2Cc3ccc(S(C)(=O)=O)cc3C2)ccc1O` [CT1812], the “amyloid β monomer concentration in the cerebral spinal fluid or interstitial fluid” value in the series on amyloid β monomer is given as “no change”. Besides, the “Percent change from baseline in Aβ 40 and 42 monomers (increase)” value with Aβ 40 and 42 monomers was under 50%. Moreover, the “difference in Alzheimer's Disease Assessment Score (ADAS-COG) between treated and untreated patients” value in the series with Patients is on record as “three-point difference”. Further, the tmax in series [1] (Plasma, Subject 90003) turned out to be 2.00 h; in series [1] (human, CSF, Subject 90003, read-out: tmax) it was 3 h. For the same compound, the AUC(0-t) – broadly, the area under the concentration-time curve up to a stated or last time point – came out at 120 ng·h/mL in series [1] (human, CSF, Subject 90001); 46.4 ng·h/mL in series [1] (human, CSF, Subject 90003); 3160 ng·h/mL in series [1] (human, plasma, Subject 90001); 1210 ng·h/mL in series [1] (human, plasma, Subject 90003). Also, the Cmax – broadly, the maximum level reached in the sampled fluid or tissue – in series [1] (human, CSF, Subject 90001) was 24.9 ng/mL; in series [1] (human, CSF, Subject 90003), 7.27 ng/mL; in series [1] (human, plasma, Subject 90001), 695 ng/mL; in series [1] (human, plasma, Subject 90003) it was 250 ng/mL. In addition, the Kp came to 0.0381 in series [1] (human, Subject 90001, read-out: CSF/Plasma Ratio based on AUC0-last); 0.0358 in series [1] (human, Subject 90001, read-out: CSF/Plasma Ratio based on Cmax); 0.0384 in series [1] (human, Subject 90003, read-out: CSF/Plasma Ratio based on AUC0-last); 0.0291 in series [1] (human, Subject 90003, read-out: CSF/Plasma Ratio based on Cmax). For the same compound, the “linear slope of CSF Aβ oligomer level over time (MIE)” value in the series on Aβ oligomers [2] (Patients 1 and 3, p<0.001 for each patient, R^2=0.7720 and 0.7898, placebo slope not different from zero) is “significantly non-zero”. The “Aβ oligomer levels in CSF over time (MIE)” value with Aβ oligomers [2] (single dose 560 mg, hourly lumbar CSF for 24 hours, mild-to-moderate Alzheimer's disease patients, not seen in placebo patient) was “apparent increase with time”. The “Aβ oligomer increase, percent change from baseline in CSF” value in the series with Aβ oligomers [2] (two treated patients, single dose 560 mg, no increase in placebo-treated patient, FIG. 4 (MIE), FIG. 5 (Western Blot)) is “more than 200%”. The “amyloid β oligomer concentration in cerebral spinal fluid and brain interstitial fluid” value in series [3] was “selectively displace oligomers and increase their concentration”. Further, in series [3], the “concentration of amyloid β monomers” value is listed as “had not effect”. Further, the “linear slope of CSF Aβ oligomer level over time (Western Blot)” value in the series on Aβ oligomers [4] (Patients 1 and 3, p<0.001 for each patient, R^2=0.9808 and 0.3997, placebo slope not different from zero) is “significantly non-zero”. The “Aβ oligomer levels in CSF over time (Western Blot)” value in the series on Aβ oligomers [4] (single dose 560 mg, hourly lumbar CSF for 24 hours, not seen in placebo patient) is on record as “apparent increase with time”.
